Counter-ions that a name gives are not always drawn.
The compounds below were run against testosterone 5α-reductase (assay: Inhibitory activity on testosterone 5α-reductase in rats (prostatic testosterone 5α-reductase assay)). Conditions: rat ventral prostate suspension; 2.2×10^-9 M 1,2,6,7-^3H-testosterone/testosterone; 50 μM NADPH; pH 6.5; 37° C., 30 minutes.
Type: biochemical, rat (Spraque-Dawley male
Text: [2] INHIBITORY ACTIVITY ON TESTOSTERONE 5α-REDUCTASE IN RATS
1,2,6,7-^3 H-Testosterone (85-105 Ci/mmol): 1,2,6,7-^3 H-Testosterone (85-105 Ci/mmol) is a mixture of 1,2,6,7-^3 H-testosterone and testosterone which includes 85-105 Ci of 1,2,6,7-^3H-testosterone per mmol of testosterone and is purchased from New England Nuclear, Boston, Mass., U.S.A.
Aquazol-2 (Aquazol-2 Universal LSC Cocktail): trademark, purchased from New England Nuclear, Boston, Mass., U.S.A.
Mature Spraque-Dawley male rats (7-8 weeks old) were sacrificed by diethyl ether. The ventral prostates were dissected to be free of their capsules and their combined volume was measured by displacement in several milliliters of ice-cold medium A (0.32M sucrose, 0.1 mM dithiothreitol and 20 mM scdium phosphate, pH 6.5). Unless specified, all the following procedures were carried out at 0°-4° C. The prostates were drained, minced, and then homogenized in 3-4 tissue volumes of medium A with Pyrex-glass homogenizer. The homogenate was fractioned by differential centrifugations at 3,000 g for 15 minutes. The resulting pellets were resuspended in medium A. The suspension (20-30 mg protein/ml) was stored at -80° C.
The reaction solution contains 1 mM dithiothreitol, 40 mM sodium phosphate pH 6.5, 50 μM NADPH, 1,2,6,7-^3 H-testosterone/testosterone (2.2×10^-9 M) and the suspension prepared above (0.8 mg of protein) in a total volume of 565 μl. Test Compound was added in 10 μl of 10% ethanol whereas control tubes received the same volume of 10% ethanol. The reaction was started with the addition of the enzyme suspension. After incubation at 37° C. for 30 minutes, the reaction was extracted with 1 ml of ethyl acetate. Fifty μl of ethyl acetate phase was chromatographed on a Merck silica plastic sheet Kieselgel 60 F254, using ethyl acetate: cyclohexane (1:1) as the developing solvent system. The plastic sheet was air dried and cut the testosterone and the 5α-dihydrotestosterone areas. The radioactivity was counted in 5 ml of Aquazol-2 in Packard scintillation counter (PACKARD TRI - CARB 4530), and an inhibitory ratio was calculated.

In order of rising IC50:
1. CCCCC(Oc1ccc(C(=O)c2cn(CCCC(=O)O)c3ccccc23)cc1)c1ccc(CC(C)C)cc1 (centres unmarked) [(8)]  0.66 nM
2. O=C(O)CCCn1cc(C(=O)c2cccc(CN3c4ccccc4CCc4ccccc43)c2)c2ccccc21 [(6), 4-[3-[3-(10,11-Dihydro-5H-dibenz[b,f]azepin-5-ylmethyl)benzoyl]indol-1-yl]butyric acid]  0.93 nM
3. CC(C)Cc1ccc(C(C)Oc2ccc(C(=O)c3cn(CCCC(=O)O)c4ccccc34)cc2)cc1 (centres unmarked) [(4), 4-[3-[4-[1-(4-Isobutylphenyl)ethoxy]benzoyl]indol-1-yl]butyric acid]  3.1 nM
4. CC(C)Cc1ccc(C(Oc2ccc(C(=O)c3cn(CCCC(=O)O)c4ccccc34)cc2)c2ccc(CC(C)C)cc2)cc1 [(3), 4-[3-[4-[Bis(4-isobutylphenyl)methoxy]benzoyl]indol-1-yl]butyric acid]  3.5 nM
5. CC(C)Cc1ccc(CNc2cc(NCc3ccc(CC(C)C)cc3)cc(C(=O)c3cn(CCCC(=O)O)c4ccccc34)c2)cc1 [(7), 4-[3-[3,5-Bis[(4-isobutylbenzyl)amino]benzoyl]indol-1-yl]butyric acid dihydrochloride]  3.7 nM
6. CC(C)Cc1ccc(C(Nc2cccc(C(=O)c3cn(CCCC(=O)O)c4ccccc34)c2)c2ccc(CC(C)C)cc2)cc1 [(1), 4-[3-[3-[Bis(4-isobutylphen-yl)methylamino]benzoyl]indol-1-yl]butyric acid]  5.5 nM
7. CC(C)Cc1ccc(C(Cc2cccc(C(=O)c3cn(CCCC(=O)O)c4ccccc34)c2)c2ccc(CC(C)C)cc2)cc1 [(5), 4-[3-[3-[2,2-Bis(4-isobutylphenyl)ethyl]benzoyl]indol-1-yl]butyric acid]  7.4 nM
8. Cc1c(C(=O)c2cccc(NC(c3ccc(CC(C)C)cc3)c3ccc(CC(C)C)cc3)c2)c2ccccc2n1CCCC(=O)O [(2), 4-[3-[3-[Bis(4-isobutylphenyl)methylamino]benzoyl]-2-methylindol-1-yl]butyric acid]  8.6 nM

Reference: patent US5212320A, “Indole derivatives and their use for testosterone 5-alpha-reductase-mediated diseases” (Fujisawa Pharmaceutical Co., Ltd., priority 1990, dated 1993)
